From PMC12650729 (Biology, 2025)
Where two headings read alike, the source gives them in different places.

What was measured:
CV-A9 3D^pol = CV-A9 3D^pol (Coxsackievirus A9, UniProt P21404); test: In vitro RNA primer extension assay using 3D^pol
CV-A9 2A^pro = test: FRET-based protease assay, CV-A9 2A protease; type: biochemical; details: pre-incubated 30 min
CV-A9 [1] = test: Primary screening for antiviral compounds by cytopathic effects (CPEs); details: 10 μM, RD cells, 36 h.p.i.
in vitro [2] = details: African green monkey
CV-B3 = test: EC50 evaluation against CV-B3 in Vero E6 cells (viral nucleic acid load); type: cell-based
Echo-11 = test: EC50 evaluation against Echo-11 in RD cells; type: cell-based
PV1 = test: microbe, parasite or virus in culture; type: cell-based, poliovirus 1; details: Enterovirus C, RD, read-out: EC50 against PV1
MCP-1 = test: Cytokine expression analysis, MCP-1 mRNA in CV-A9-infected RD cells; type: cell-based, Human; details: MOI 0.001, 24 h
Procedure: (§1) Figure S13. Effect of bioactive compounds on the expression of MCP-1 and COX-
(§2) 2 induced by CV-A9 infection.
(§3) MCP-1 (a) and COX-2 (b) mRNA levels in RD cells were quantified by RT-qPCR at
(§4) 24 h.p.i following CV-A9 infection (MOI=0.001) and treatment with 50 μM velutin,
(§5) isorhamnetin, or (−)-epicatechin gallate. Representative curves of at least two

CV-A9 [3] = test: EC50 evaluation against CV-A9 in Huh-7 cells; type: cell-based
EV-A71 [4] = test: Antiviral evaluation in vivo, EV-A71-infected BALB/c young mice (tissue viral load, H&E); details: same dosing
EV-A71 [5] = test: microbe, parasite or virus in culture; type: cell-based; details: Enterovirus A, EVA71, RD, read-out: EC50 against EV-A71
COX-2 = test: Cytokine expression analysis, COX-2 mRNA in CV-A9-infected RD cells; type: cell-based, Human; details: MOI 0.001, 24 h
Procedure: as §1, §2, §3, §4, §5

CV-A9 [6] = test: EC50 evaluation against CV-A9 in RD cells (viral nucleic acid load); type: cell-based; details: read-out: EC50 against CV-A9
CV-A9 [7] = test: Time-of-addition assay, CV-A9; type: cell-based; details: 25 μM, RD cells, MOI 0.001
TNF-α = test: Cytokine expression analysis, TNF-α mRNA in CV-A9-infected RD cells
in vitro [8] = details: human
[9] = CC50 evaluation, CellTiter-Blue cell viability assay, RD cells; type: cell-based; details: human, RD cells (human rhabdomyosarcoma), parallel to CV-A9 assay
IRES = details: 293T cells, Fluc/Rluc
IL-6 = test: Cytokine expression analysis, IL-6 mRNA in CV-A9-infected RD cells; details: Homo sapiens, 24 h, read-out: inhibition of CV-A9-induced IL-6 upregulation
CV-A9 [10] = test: organism not typed; type: cell-based; details: for inhibition at 25 µM: RD
CV-A9 [11] = test: Post-entry inhibitory effect (viral RNA kinetics), CV-A9 in RD cells; type: cell-based; details: 25 μM added at 2 h post-infection, cells and supernatants
CV-A9 [12] = test: Drug combination, Zero Interaction Potency (ZIP) model, SynergyFinder, CV-A9-infected RD cells; details: CV-A9 MOI 0.001, RD cells; -10 to 10 additive
CV-B3 3C^pro = CV-B3 3C^pro (Coxsackievirus B3, UniProt P03313); test: FRET-based protease assay, CV-B3 3C protease; type: biochemical; details: 1 mM
[13] = Vero C1008, read-out: EC50 against CV-B3
[14] = Huh-7, read-out: EC50 against CV-A9
[15] = read-out: inhibition of CV-A9 attachment

CV-A9 3D^pol, sequence (P21404 1740-2201): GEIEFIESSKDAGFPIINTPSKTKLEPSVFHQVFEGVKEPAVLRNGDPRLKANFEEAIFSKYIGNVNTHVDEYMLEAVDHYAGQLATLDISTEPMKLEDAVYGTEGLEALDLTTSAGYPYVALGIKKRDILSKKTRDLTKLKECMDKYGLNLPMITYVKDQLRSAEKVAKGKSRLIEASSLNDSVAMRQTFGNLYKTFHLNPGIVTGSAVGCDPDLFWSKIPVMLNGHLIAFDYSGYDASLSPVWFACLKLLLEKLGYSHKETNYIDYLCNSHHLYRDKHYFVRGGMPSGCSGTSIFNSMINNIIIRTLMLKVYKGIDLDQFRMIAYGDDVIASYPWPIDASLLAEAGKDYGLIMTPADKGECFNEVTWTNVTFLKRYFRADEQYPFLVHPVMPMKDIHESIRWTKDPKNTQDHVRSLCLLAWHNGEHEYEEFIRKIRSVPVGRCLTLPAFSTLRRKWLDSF
CV-B3 3C^pro, sequence (P03313 1541-1723): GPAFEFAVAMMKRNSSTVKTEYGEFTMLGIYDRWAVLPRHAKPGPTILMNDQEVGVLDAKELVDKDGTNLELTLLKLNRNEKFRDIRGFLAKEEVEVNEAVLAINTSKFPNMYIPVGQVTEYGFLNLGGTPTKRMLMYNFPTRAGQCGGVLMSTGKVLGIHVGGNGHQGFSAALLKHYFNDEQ

COc1cc(O)c2c(=O)cc(-c3ccc(O)c(OC)c3)oc2c1 [velutin]
inhibitory activity against 3D^pol (CV-A9 3D^pol): no inhibitory activity
inhibitory activity against 2A^pro (CV-A9 2A^pro): no inhibitory activity
primary screening result by CV-A9-induced CPEs (CV-A9 [1]): identified as CV-A9 inhibitors
CC50 (in vitro [2]): > 100 µM
EC50 (CV-B3; [13]): 2.26 µM
EC50 (Echo-11; read-out: EC50 against Echo-11): 0.69 µM
EC50 (PV1): 0.96 µM
inhibition at 50 µM (MCP-1; Homo sapiens, read-out: inhibition of CV-A9-induced MCP-1 upregulation): 20%
EC50 (CV-A9 [3]; [14]): 3.7 µM
intestinal histopathology (H&E) (EV-A71 [4]): no hydropic degeneration of the epithelial cells
EC50 (EV-A71 [5]): 2.18 µM
inhibition at 50 µM (COX-2; Homo sapiens, read-out: inhibition of CV-A9-induced COX-2 upregulation): 70 to 80%
EC50 (CV-A9 [6]; RD): 0.76 µM
phase-specific activity, time-of-addition, CV-A9 (CV-A9 [7]): pan-stage suppression spanning both entry and post-entry phases
inhibition at 50 µM (TNF-α; Homo sapiens, RD, 24 h, read-out: inhibition of CV-A9-induced TNF-α upregulation): 70 to 80%
CC50 (in vitro [8]): > 100 µM
CC50 [9]: > 100 µM
inhibitory activity against IRES elements (IRES): no inhibitory activity
inhibition at 50 µM (IL-6): 70 to 80%
inhibition at 25 µM (CV-A9 [10]; [15]): 40.5%
inhibition at 25 µM (CV-A9 [10]; read-out: inhibition of CV-A9 internalization): 38.2%
post-entry viral load kinetics, CV-A9 (CV-A9 [11]): significantly suppressed intra- and extracellular viral proliferation

O=C(O[C@@H]1Cc2c(O)cc(O)cc2O[C@@H]1c1ccc(O)c(O)c1)c1cc(O)c(O)c(O)c1 [(−)-epicatechin gallate]
CC50 (Huh-7 cells): > 100 µM
inhibitory activity against 3D^pol (CV-A9 3D^pol): no inhibitory activity
inhibitory activity against 2A^pro (CV-A9 2A^pro): no inhibitory activity
ZIP score of the combination with velutin (CV-A9 [12]): 1.443
primary screening result by CV-A9-induced CPEs (CV-A9 [1]): identified as CV-A9 inhibitors
inhibition of CV-B3 3C^pro protease activity (CV-B3 3C^pro): about 50%
CC50 (Vero E6 cells): > 100 µM
phase-specific activity, time-of-addition, CV-A9 (CV-A9 [7]): pan-stage suppression spanning both entry and post-entry phases
inhibitory activity against IRES elements (IRES): no inhibitory activity

COc1cc(-c2oc3cc(O)cc(O)c3c(=O)c2O)ccc1O [isorhamnetin]
inhibitory activity against 3D^pol (CV-A9 3D^pol): no inhibitory activity
inhibitory activity against 2A^pro (CV-A9 2A^pro): no inhibitory activity
ZIP score of the combination with velutin (CV-A9 [12]): 3.126
primary screening result by CV-A9-induced CPEs (CV-A9 [1]): identified as CV-A9 inhibitors
CC50 (in vitro [2]): > 100 µM
inhibition at 1000 µM (CV-B3 3C^pro): ~50%
EC50 (CV-B3; Vero C1008, MOI 0.001, read-out: EC50 against CV-B3): 1.62 µM
EC50 (Echo-11; MOI 0.005, read-out: EC50 against Echo-11): 20.6 µM
EC50 (PV1): 13.9 µM
inhibition of CV-A9-induced MCP-1 upregulation (MCP-1; 50 μM): without significant effects
EC50 (CV-A9 [3]; Huh-7 cells, read-out: EC50 against CV-A9): 9.07 µM
EC50 (EV-A71 [5]): 14.6 µM
inhibition of CV-A9-induced COX-2 upregulation (COX-2; 50 μM): without significant effects
EC50 (CV-A9 [6]; RD cells, MOI 0.001): 2.23 µM
phase-specific activity, time-of-addition, CV-A9 (CV-A9 [7]): pan-stage suppression spanning both entry and post-entry phases
inhibition of CV-A9-induced TNF-α upregulation (TNF-α; 50 μM, RD cells, MOI 0.001, 24 h): without significant effects
CC50 (in vitro [8]): > 100 µM
CC50 [9]: > 100 µM
inhibitory activity against IRES elements (IRES): no inhibitory activity
inhibition at 50 µM (IL-6): ~60%

Oc1cccc(O)c1O [pyrogallol]
ZIP score of the combination with velutin (CV-A9 [12]): 1.684
primary screening result by CV-A9-induced CPEs (CV-A9 [1]): identified as CV-A9 inhibitors
CC50 (in vitro [2]): > 100 µM
EC50 (CV-B3; [13]): 1.78 µM
EC50 (Echo-11; read-out: EC50 against Echo-11): > 100 µM
EC50 (PV1): > 100 µM
EC50 (CV-A9 [3]; [14]): 8.83 µM
EC50 (EV-A71 [5]): > 100 µM
EC50 (CV-A9 [6]; RD): 10.5 µM
phase-specific activity, time-of-addition, CV-A9 (CV-A9 [7]): exclusively targeted viral attachment
CC50 (in vitro [8]): > 100 µM
CC50 [9]: > 100 µM
inhibition of CV-A9 internalization (CV-A9 [10]; 25 µM): without affecting cellular internalization
inhibition at 25 µM (CV-A9 [10]; [15]): 32.4%

Nc1ccc(C(=O)Nc2cccc(-c3nc(N4CCOCC4)c4oc5ncccc5c4n3)c2)cn1 [YM-201636, reference compound]
intestinal histopathology (H&E) (EV-A71 [4]): partial shedding of intestinal epithelial cells
